Values of other authors as cited in patent US20060094734A1, “Composition and method for inducing alertness” (priority 2004, published 2006).

System: rats
Settings: rat, in vivo

For `NCCS(=O)(=O)O` [taurine, 2-aminoethanesulfonic acid], which “LD 50” value is on record?
The value was “greater than 5,000 mg/kg”.
